Source: ChEMBL document CHEMBL5390221, “Synthesis and biological activity assay of novel camptothecin-peptidic conjugates based on PEPT1” (Bioorg Med Chem Lett, 2023)

Columns and labels:
Hep 3B2 = experiment: Cytotoxicity against human Hep3B cells assessed as inhibition of cell growth; type: functional, cell-based
HepG2 = experiment: Cytotoxicity against human HepG2 cells assessed as inhibition of cell growth; type: functional, cell-based
NCI-H520 = experiment: Cytotoxicity against human NCI-H520 cells assessed as inhibition of cell growth; type: functional, cell-based
[1] = target: T1, Solute carrier family 15 member 1 (Homo sapiens) (UniProt P46059); experiment: Inhibition of PEPT1 (unknown origin) expressed in HEK293T cells assessed as inhibition of PEPT1 mediated Gly-Sar uptake using Gly-Sar as substrate at 20 uM relative to control; type: cell-based
T1 sequence (whole entry): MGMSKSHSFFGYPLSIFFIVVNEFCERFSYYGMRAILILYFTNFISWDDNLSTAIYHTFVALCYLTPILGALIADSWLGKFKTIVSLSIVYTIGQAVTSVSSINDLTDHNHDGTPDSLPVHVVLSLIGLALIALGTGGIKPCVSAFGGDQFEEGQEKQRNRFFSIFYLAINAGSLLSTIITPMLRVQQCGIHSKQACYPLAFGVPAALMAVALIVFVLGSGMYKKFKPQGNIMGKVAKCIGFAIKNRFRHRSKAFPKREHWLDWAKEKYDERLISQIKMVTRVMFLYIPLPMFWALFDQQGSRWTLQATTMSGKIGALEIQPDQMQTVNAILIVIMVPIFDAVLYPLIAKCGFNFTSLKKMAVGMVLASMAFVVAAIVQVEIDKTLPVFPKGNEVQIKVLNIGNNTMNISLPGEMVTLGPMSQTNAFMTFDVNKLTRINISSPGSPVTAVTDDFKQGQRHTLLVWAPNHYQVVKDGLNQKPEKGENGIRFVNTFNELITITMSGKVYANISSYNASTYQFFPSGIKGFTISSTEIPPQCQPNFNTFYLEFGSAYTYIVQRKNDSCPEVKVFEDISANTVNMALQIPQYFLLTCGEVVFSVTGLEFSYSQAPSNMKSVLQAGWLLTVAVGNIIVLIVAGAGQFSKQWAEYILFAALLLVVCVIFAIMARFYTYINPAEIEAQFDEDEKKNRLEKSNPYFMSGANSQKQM

DU-145 = experiment: Cytotoxicity against human DU-145 cells assessed as inhibition of cell growth; type: functional, cell-based
[2] = Cytotoxicity against human MPC2 cells assessed as inhibition of cell growth; type: functional, cell-based
BXPC-3 = experiment: Cytotoxicity against human BXPC-3 cells assessed as inhibition of cell growth; type: functional, cell-based

| inhibition [1] | Compound | IC50 (Hep 3B2) | IC50 (HepG2) | IC50 (NCI-H520) | IC50 (DU-145) | IC50 [2] | IC50 (BXPC-3) |
| --- | --- | --- | --- | --- | --- | --- | --- |
| > 50% | CC[C@@]1(OC(=O)CNC(=O)[C@H](CC(N)=O)NC(=O)OC(C)(C)C)C(=O)OCc2c1cc1n(c2=O)Cc2cc3ccccc3nc2-1 | 784 nM | 88.6 nM | 58 nM | 89.9 nM | 260 nM | 84.2 nM |
| – | CC[C@H](C)[C@H](NC(=O)OC(C)(C)C)C(=O)NCC(=O)O[C@]1(CC)C(=O)OCc2c1cc1n(c2=O)Cc2cc3ccccc3nc2-1 | 1770 nM | 176 nM | 58.5 nM | 97 nM | 166 nM | 222 nM |
| > 50% | CC[C@@]1(OC(=O)CNC(=O)[C@H](CCC(N)=O)NC(=O)OC(C)(C)C)C(=O)OCc2c1cc1n(c2=O)Cc2cc3ccccc3nc2-1 | 999 nM | 144 nM | 135 nM | 144 nM | 387 nM | 121 nM |
| – | CCCCCC(=O)NCC(=O)O[C@]1(CC)C(=O)OCc2c1cc1n(c2=O)Cc2cc3ccccc3nc2-1 | 1530 nM | 114 nM | 162 nM | 46.1 nM | 79.4 nM | 105 nM |
| – | CC[C@@]1(OC(=O)CNC(=O)[C@@H](NC(=O)OC(C)(C)C)C(C)C)C(=O)OCc2c1cc1n(c2=O)Cc2cc3ccccc3nc2-1 | 872 nM | 197 nM | 78.5 nM | 78.8 nM | 204 nM | 143 nM |
| – | CC[C@@]1(OC(=O)CNC(=O)[C@H](CC(C)C)NC(=O)OC(C)(C)C)C(=O)OCc2c1cc1n(c2=O)Cc2cc3ccccc3nc2-1 | 1060 nM | 87.6 nM | 34.8 nM | 44.6 nM | 125 nM | 162 nM |
| > 50% | CCC(=O)NCC(=O)O[C@]1(CC)C(=O)OCc2c1cc1n(c2=O)Cc2cc3ccccc3nc2-1 | 1010 nM | 109 nM | 166 nM | 52.8 nM | 155 nM | 123 nM |
| – | CC[C@H](C)[C@H](NC(C)=O)C(=O)NCC(=O)O[C@]1(CC)C(=O)OCc2c1cc1n(c2=O)Cc2cc3ccccc3nc2-1 | 847 nM | 70.4 nM | 109 nM | 94.4 nM | 197 nM | 153 nM |
| > 50% | CC[C@@]1(OC(=O)CNC(=O)[C@H](Cc2ccccc2)NC(C)=O)C(=O)OCc2c1cc1n(c2=O)Cc2cc3ccccc3nc2-1 | 973 nM | 60.4 nM | 56.9 nM | 51.7 nM | 102 nM | 89.5 nM |
| – | CC[C@@]1(OC(=O)CNC(=O)[C@H](C)NC(C)=O)C(=O)OCc2c1cc1n(c2=O)Cc2cc3ccccc3nc2-1 | 1010 nM | 88.7 nM | 69.3 nM | 67.5 nM | 91.4 nM | 108 nM |
| – | CC[C@@]1(O)C(=O)OCc2c1cc1n(c2=O)Cc2cc3ccccc3nc2-1 [CAMPTOTHECIN] | 434 nM | 33.2 nM | 25 nM | 33.5 nM | 83.7 nM | 62.5 nM |
| – | CC[C@@]1(OC(=O)CNC(=O)[C@H](Cc2ccccc2)NC(=O)OC(C)(C)C)C(=O)OCc2c1cc1n(c2=O)Cc2cc3ccccc3nc2-1 | 1120 nM | 74.7 nM | 54.9 nM | 74.3 nM | 206 nM | 97.7 nM |
| – | CC[C@@]1(OC(=O)CNC(=O)C(C)C)C(=O)OCc2c1cc1n(c2=O)Cc2cc3ccccc3nc2-1 | 969 nM | 129 nM | 87.2 nM | 55.4 nM | 97.1 nM | 167 nM |
| > 50% | CC[C@@]1(OC(=O)CNC(=O)[C@@H](NC(C)=O)C(C)C)C(=O)OCc2c1cc1n(c2=O)Cc2cc3ccccc3nc2-1 | 914 nM | 150 nM | 125 nM | 87 nM | 209 nM | 54.8 nM |
| > 50% | CCCC(=O)NCC(=O)O[C@]1(CC)C(=O)OCc2c1cc1n(c2=O)Cc2cc3ccccc3nc2-1 | 1510 nM | 91.8 nM | 153 nM | 55 nM | 106 nM | 157 nM |
| – | CC[C@@]1(OC(=O)CNC(=O)[C@H](C)NC(=O)OC(C)(C)C)C(=O)OCc2c1cc1n(c2=O)Cc2cc3ccccc3nc2-1 | 850 nM | 114 nM | 67.9 nM | 68.1 nM | 180 nM | 92.8 nM |
| – | CC[C@@]1(OC(=O)CNC(=O)CNC(C)=O)C(=O)OCc2c1cc1n(c2=O)Cc2cc3ccccc3nc2-1 | 767 nM | 59.1 nM | 98.6 nM | 76.1 nM | 153 nM | 75.2 nM |
